Assay results published in patent US10072001B2, “Tank-binding kinase inhibitor compounds” (Gilead Sciences, Inc., priority 2014, dated 2018).

Assays:
IKKε = IKKε (Homo sapiens (Human), UniProt Q14164); test: TR-FRET kinase assay, IKKε; assay type: biochemical; conditions: full length recombinant IKKε 0.3 nM, 2x Km ATP, 1 μM peptide, 240 min at 25° C.; geometric mean of minimum four determinations
Description: Biological Assay for TBK1 and IKKs:

TBK1 = TBK1 (Homo sapiens (Human), UniProt Q9UHD2); test: TR-FRET kinase assay, TBK1; conditions: read-out: TBK1-IC50; full length recombinant TBK1 2.5 nM, 2x Km ATP, 1 μM peptide, 240 min at 25° C.; geometric mean of minimum four determinations
Chain of TBK1 (Q9UHD2 whole entry): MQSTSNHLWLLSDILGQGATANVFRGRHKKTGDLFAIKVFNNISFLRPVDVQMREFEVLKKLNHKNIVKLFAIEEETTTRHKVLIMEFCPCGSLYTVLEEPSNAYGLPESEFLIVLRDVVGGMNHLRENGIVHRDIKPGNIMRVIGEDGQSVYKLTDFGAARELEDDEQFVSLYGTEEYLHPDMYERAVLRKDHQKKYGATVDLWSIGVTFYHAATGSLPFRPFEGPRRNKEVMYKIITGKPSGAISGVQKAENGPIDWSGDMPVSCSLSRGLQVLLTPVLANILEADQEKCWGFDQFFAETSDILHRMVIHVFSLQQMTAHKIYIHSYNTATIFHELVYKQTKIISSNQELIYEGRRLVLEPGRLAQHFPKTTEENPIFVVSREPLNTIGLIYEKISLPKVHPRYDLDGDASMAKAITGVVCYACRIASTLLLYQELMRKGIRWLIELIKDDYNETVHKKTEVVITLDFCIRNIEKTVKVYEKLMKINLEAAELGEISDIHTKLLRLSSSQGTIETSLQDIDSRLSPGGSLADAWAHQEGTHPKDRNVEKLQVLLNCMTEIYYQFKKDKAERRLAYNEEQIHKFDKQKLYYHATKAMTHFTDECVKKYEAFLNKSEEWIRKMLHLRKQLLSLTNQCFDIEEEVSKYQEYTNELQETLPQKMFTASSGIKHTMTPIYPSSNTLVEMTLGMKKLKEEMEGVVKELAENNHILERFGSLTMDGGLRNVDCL

Chain of IKKε (Q14164 whole entry): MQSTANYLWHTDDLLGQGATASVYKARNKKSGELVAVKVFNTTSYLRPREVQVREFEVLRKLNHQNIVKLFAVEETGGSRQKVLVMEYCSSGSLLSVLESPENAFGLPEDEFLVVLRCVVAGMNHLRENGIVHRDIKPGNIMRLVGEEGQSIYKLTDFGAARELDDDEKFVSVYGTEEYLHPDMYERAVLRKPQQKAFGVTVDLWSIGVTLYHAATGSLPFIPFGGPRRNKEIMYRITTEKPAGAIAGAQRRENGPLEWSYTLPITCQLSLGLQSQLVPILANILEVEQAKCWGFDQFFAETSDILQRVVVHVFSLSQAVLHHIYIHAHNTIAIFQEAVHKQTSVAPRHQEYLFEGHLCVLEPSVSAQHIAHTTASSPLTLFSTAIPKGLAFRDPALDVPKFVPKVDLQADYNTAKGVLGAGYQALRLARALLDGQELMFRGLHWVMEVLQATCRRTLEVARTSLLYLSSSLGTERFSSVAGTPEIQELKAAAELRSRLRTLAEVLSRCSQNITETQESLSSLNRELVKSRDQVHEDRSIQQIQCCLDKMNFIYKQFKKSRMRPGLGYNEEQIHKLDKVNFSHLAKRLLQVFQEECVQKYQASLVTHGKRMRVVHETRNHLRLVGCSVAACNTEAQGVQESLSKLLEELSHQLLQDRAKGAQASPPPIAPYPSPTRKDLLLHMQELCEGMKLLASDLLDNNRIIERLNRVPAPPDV

SMILES	IC50 (IKKε) [nM]	IC50 (TBK1) [nM]
COc1ccc(-c2cc3c(-c4ccc(OC5CCN(C(=O)CO)CC5)c(C#N)c4)ncnc3[nH]2)cc1 [Example 126, 2-((1-(2-hydroxyacetyl)piperidin-4-yl)oxy)-5-(6-(4-methoxyphenyl)-7H-pyrrolo[2,3-d]pyrimidin-4-yl)benzonitrile]	3.29	1.34
COc1cc(-c2cc3c(-c4ccc(O[C@H]5CCN(C(=O)CO)C[C@H]5F)c(C#N)c4)ncnc3[nH]2)ccc1N1CCN(C2COC2)CC1 [Example 145, 2-(((3R,4S)-3-fluoro-1-(2-hydroxyacetyl)piperidin-4-yl)oxy)-5-(6-(3-methoxy-4-(4-(oxetan-3-yl)piperazin-1-yl)phenyl)-7H-pyrrolo[2,3-d]pyrimidin-4-yl)benzonitrile]	0.481	1.05
CC(C)(C)OC(=O)N1CC[C@H](Oc2ccc(-c3ccnc4[nH]c(-c5ccc(N6CCOCC6)cc5)cc34)cc2C#N)C1 [Example 25, (S)-tert-butyl 3-(2-cyano-4-(2-(4-morpholinophenyl)-1H-pyrrolo[2,3-b]pyridin-4-yl)phenoxy)pyrrolidine-1-carboxylate]	306	115
O=C1NCc2cc(-c3cc4c(-c5ccc6c(c5)CNC6=O)ncnc4[nH]3)ccc21 [Example 224, 5,5′-(7H-pyrrolo[2,3-d]pyrimidine-4,6-diyl)bis(isoindolin-1-one)]	1000	1000
N#Cc1cc(-c2ncnc3[nH]c(-c4ccc(CN5CCOCC5)cc4)nc23)ccc1OC1CCN(C(=O)C(F)F)CC1 [Example 266, 2-((1-(2,2-difluoroacetyl)piperidin-4-yl)oxy)-5-(8-(4-(morpholinomethyl)phenyl)-9H-purin-6-yl)benzonitrile]	7.95	8.87
CC(C)(C)OC(=O)N1CC=C(c2cc3c(-c4ccc(OC5CCOCC5)c(C#N)c4)ccnc3[nH]2)C1 [Example 36, tert-butyl 3-(4-(3-cyano-4-((tetrahydro-2H-pyran-4-yl)oxy)phenyl)-1H-pyrrolo[2,3-b]pyridin-2-yl)-2,5-dihydro-1H-pyrrole-1-carboxylate]	79	38.4
N#CCC(=O)N1CC[C@@H](Oc2ccc(-c3ccnc4[nH]c(-c5ccc(N6CCOCC6)cc5)nc34)cc2C#N)C1 [Example 303, (R)-2-((1-(2-cyanoacetyl)pyrrolidin-3-yl)oxy)-5-(2-(4-morpholinophenyl)-3H-imidazo[4,5-b]pyridin-7-yl)benzonitrile]	7.51	4.59
CC(O)C(=O)N1CC[C@@H](Oc2ccc(-c3ccnc4[nH]c(-c5ccc(N6CCOCC6)cc5)cc34)cc2C#N)C1 (stereo partly drawn) [Example 27, 2-(((3R)-1-(2-hydroxypropanoyl)pyrrolidin-3-yl)oxy)-5-(2-(4-morpholinophenyl)-1H-pyrrolo[2,3-b]pyridin-4-yl)benzonitrile]	13.4	6.54
N#Cc1cc(-c2ncnc3[nH]c(-c4cnc5c(c4)NCCO5)cc23)ccc1OC1CCOCC1 [Example 189, 5-(6-(2,3-dihydro-1H-pyrido[2,3-b][1,4]oxazin-7-yl)-7H-pyrrolo[2,3-d]pyrimidin-4-yl)-2-((tetrahydro-2H-pyran-4-yl)oxy)benzonitrile]	7.99	4.36
C[C@H](O)C(=O)N1CC[C@@H](Oc2ccc(-c3ncnc4[nH]c(-c5ccc(N6CCOCC6)cc5)nc34)cc2C#N)C1 [Example 210, 2-(((R)-1-((S)-2-hydroxypropanoyl)pyrrolidin-3-yl)oxy)-5-(8-(4-morpholinophenyl)-9H-purin-6-yl)benzonitrile]	> 875	38.9
COc1cc(-c2cc3c(-c4ccc(OC5CCOCC5)c(C#N)c4)ncnc3[nH]2)ccc1N1CCN(C(=O)CO)CC1 [Example 134, 5-(6-(4-(4-(2-hydroxyacetyl)piperazin-1-yl)-3-methoxyphenyl)-7H-pyrrolo[2,3-d]pyrimidin-4-yl)-2-((tetrahydro-2H-pyran-4-yl)oxy)benzonitrile]	6.09	1.09
